For one experiment, the target named is PLK4 (h) (Homo sapiens, UniProt O00444). Kind of experiment: PLK-4 human kinase inhibition, scintillation proximity assay (SPA). In kind it is biochemical. Conditions: read-out: PLK4 pIC50 (converted). A general note: SPA uses beads or plates that emit light when radiolabelled molecules are held near them.
A further experiment addresses GSK3β (h) (Homo sapiens, UniProt P49841). Description: GSK-3β human kinase inhibition, SPA. The class given is biochemical. The settings on record: read-out: GSK3b pIC50 (converted). Put shortly: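 Scintillation proximity assay: GSK3β (1 μg/ml) with 1 μM biotinylated peptide, 1 μM ATP plus [γ-33P]ATP in Tris pH 7.4, MgCl2, DTT. 60 min at room temperature, stopped with EDTA and streptavidin PVT beads; phosphorylation read by Leadseeker imaging.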

The next experiment has as its target CDK1/CyclinB (h) (Homo sapiens, UniProt P06493). Kind of experiment: CDK1/CyclinB human kinase inhibition, Invitrogen's FRET assay (Z'lyte). The class given is biochemical. The settings on record: read-out: CDK1 pIC50 (converted). The method, boiled down:
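Z'lyte FRET assay: human CDK1/CyclinB (0.2 μg/ml) with 2 μM Ser/Thr peptide 12 and 10 μM ATP in 50 mM Hepes pH 7.5, MgCl2, EGTA, Brij-35, 60 min at room temperature. Protease development 60 min, then emission ratio 460/538 nm read with excitation at 390 nm.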

In the next experiment the target is CDK4/CyclinD1 (h) (Homo sapiens, UniProt P11802). Kind of experiment: CDK4/CyclinD1 human kinase inhibition, SPA with GST-pRb substrate. The class given is biochemical. Conditions: read-out: CDK4 pIC50 (converted). The method, boiled down: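 Human CDK4/CyclinD1 (2.5 μg/ml) was incubated with 40 μg/ml GST-pRb and 2 nM [γ-33P]ATP in 50 mM Hepes pH 7.5, 8 mM NaF, 20 mM MgCl2, 1 mM DTT for 60 min at room temperature. EDTA stop with glutathione SPA beads; phosphorylation read by scintillation counting.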

For the next experiment, the target named is PLK1 T210D (h) (Homo sapiens, UniProt P53350, T210D). Description: PLK1 human kinase inhibition, SPA. The class given is biochemical. The settings on record: read-out: PLK1 pIC50 (converted). Put shortly: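 Radiometric SPA with PLK1 T210D (0.125 ng/ml) in 50 mM Hepes pH 8.0, 2 mM MnCl2, 1 mM DTT, 2 μM biotinylated peptide, 0.1 μM ATP plus 2 nM [γ-33P]ATP. 40 min at room temperature, EDTA stop. Phosphorylated substrate captured on streptavidin PVT beads, scintillation imaged.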

In a further experiment the test system is HCT-116. Description: Cellular proliferation assay (Alamar blue), HCT-116. In kind it is cell-based. Conditions: Homo sapiens, 10% FCS, 72 hours with compound, Alamar blue 4 h. The method, boiled down: (§1)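 Cells were seeded in medium with 10% FCS at 37° C, 5% CO2, left 24 h without compound, then exposed to compounds for 72 h. Viability was read with Alamar blue (resazurin 9 μg/ml, K-ferrocyanide and K-ferricyanide 90 μM each), 6 h for U87-MG, 4 h for HCT-116, 24 h for A2780 and MDA-MB-231.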

For the next experiment, the system named is H1299. Kind of experiment: Cellular proliferation assay (Alamar blue), H1299. In kind it is cell-based. Conditions: Homo sapiens, NCI-H1299; 10% FCS; 72 hours with compound; Alamar blue 4 h. The method, boiled down: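 This proliferation assay on NCI-H1299 cells used an initial 24-hour compound-free incubation after seeding, followed by 72 hours of compound treatment with 10% FCS serum at 37° C. and 5% (v/v) CO2. Viable cells were quantified by a 4 h Alamar blue incubation and fluorescent plate reading at 544 nm/590 nm, and effects were expressed relative to control cells.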
(In general: Alamar Blue is a resazurin reagent that responds to reducing activity.)

For a further experiment, the system named is A2780. Description: Cellular proliferation assay (Alamar blue), A2780. In kind it is cell-based. Conditions: Homo sapiens, 10% FCS, 72 hours with compound, Alamar blue 24 h, read-out: A2780 (cellular proliferation assay, Table 4) (converted). The method, boiled down:
as §1

A further experiment concerns MDA-MB-231. Description: Cellular proliferation assay (Alamar blue), MDA-MB-231. The class given is cell-based. Conditions: Homo sapiens, 10% FCS, 72 hours with compound, Alamar blue 24 h, read-out: MDA/MB231 (cellular proliferation assay, Table 4) (converted). The method, boiled down: as §1

PLK1 T210D (h), sequence (P53350 whole entry T210D): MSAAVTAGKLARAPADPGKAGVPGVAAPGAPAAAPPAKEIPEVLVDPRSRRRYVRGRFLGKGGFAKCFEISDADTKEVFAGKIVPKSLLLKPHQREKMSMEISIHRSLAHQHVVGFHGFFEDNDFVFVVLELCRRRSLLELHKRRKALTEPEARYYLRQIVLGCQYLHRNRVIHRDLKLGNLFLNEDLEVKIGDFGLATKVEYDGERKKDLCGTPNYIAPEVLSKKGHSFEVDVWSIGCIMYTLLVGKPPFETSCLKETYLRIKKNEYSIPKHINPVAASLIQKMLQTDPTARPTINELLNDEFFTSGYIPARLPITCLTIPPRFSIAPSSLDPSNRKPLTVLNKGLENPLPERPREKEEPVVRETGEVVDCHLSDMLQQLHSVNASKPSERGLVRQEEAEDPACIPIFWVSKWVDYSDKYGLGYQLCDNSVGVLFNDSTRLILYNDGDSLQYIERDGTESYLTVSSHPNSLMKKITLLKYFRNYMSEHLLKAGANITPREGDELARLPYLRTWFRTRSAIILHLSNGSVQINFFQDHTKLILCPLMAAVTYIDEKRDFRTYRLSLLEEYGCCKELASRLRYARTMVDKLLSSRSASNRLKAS
CDK4/CyclinD1 (h), sequence (P11802 whole entry): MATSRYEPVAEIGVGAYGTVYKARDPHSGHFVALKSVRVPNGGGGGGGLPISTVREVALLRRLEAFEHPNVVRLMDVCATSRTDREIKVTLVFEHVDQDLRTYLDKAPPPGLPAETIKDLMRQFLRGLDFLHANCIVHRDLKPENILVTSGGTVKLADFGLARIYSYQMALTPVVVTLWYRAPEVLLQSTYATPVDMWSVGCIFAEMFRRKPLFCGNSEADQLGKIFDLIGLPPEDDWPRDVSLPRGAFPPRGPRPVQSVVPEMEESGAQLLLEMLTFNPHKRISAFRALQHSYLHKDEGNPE
CDK4/CyclinD1 (h), sequence (P24385 whole entry partner): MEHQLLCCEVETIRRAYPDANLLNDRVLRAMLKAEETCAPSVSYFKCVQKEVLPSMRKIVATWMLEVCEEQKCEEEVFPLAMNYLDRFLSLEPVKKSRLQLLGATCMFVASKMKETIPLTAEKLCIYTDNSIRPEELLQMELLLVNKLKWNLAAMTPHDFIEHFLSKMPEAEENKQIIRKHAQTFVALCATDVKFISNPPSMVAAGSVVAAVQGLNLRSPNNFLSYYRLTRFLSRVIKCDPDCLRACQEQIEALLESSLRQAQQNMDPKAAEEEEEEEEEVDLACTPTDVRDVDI
CDK1/CyclinB (h), sequence (P06493 whole entry): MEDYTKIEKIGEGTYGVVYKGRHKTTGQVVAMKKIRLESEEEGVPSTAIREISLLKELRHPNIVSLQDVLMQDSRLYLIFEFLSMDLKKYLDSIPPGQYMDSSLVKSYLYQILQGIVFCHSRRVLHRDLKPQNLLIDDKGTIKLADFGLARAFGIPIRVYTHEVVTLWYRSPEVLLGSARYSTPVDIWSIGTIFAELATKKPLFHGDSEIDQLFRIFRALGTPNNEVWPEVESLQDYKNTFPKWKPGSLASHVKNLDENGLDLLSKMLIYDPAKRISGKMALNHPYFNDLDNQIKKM
CDK1/CyclinB (h), sequence (P14635 whole entry partner): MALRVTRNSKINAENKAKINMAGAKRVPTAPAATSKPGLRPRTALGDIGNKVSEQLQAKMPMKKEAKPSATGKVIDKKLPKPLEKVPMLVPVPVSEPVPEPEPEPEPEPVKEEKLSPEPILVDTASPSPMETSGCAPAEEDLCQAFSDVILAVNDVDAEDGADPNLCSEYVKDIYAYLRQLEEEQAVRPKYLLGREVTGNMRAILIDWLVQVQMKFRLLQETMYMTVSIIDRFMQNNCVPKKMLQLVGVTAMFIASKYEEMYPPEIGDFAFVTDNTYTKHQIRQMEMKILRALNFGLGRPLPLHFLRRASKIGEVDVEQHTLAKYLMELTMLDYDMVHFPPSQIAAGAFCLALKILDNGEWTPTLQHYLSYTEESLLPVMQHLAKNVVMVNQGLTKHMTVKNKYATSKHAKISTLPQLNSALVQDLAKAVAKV
PLK4 (h), sequence (O00444 whole entry): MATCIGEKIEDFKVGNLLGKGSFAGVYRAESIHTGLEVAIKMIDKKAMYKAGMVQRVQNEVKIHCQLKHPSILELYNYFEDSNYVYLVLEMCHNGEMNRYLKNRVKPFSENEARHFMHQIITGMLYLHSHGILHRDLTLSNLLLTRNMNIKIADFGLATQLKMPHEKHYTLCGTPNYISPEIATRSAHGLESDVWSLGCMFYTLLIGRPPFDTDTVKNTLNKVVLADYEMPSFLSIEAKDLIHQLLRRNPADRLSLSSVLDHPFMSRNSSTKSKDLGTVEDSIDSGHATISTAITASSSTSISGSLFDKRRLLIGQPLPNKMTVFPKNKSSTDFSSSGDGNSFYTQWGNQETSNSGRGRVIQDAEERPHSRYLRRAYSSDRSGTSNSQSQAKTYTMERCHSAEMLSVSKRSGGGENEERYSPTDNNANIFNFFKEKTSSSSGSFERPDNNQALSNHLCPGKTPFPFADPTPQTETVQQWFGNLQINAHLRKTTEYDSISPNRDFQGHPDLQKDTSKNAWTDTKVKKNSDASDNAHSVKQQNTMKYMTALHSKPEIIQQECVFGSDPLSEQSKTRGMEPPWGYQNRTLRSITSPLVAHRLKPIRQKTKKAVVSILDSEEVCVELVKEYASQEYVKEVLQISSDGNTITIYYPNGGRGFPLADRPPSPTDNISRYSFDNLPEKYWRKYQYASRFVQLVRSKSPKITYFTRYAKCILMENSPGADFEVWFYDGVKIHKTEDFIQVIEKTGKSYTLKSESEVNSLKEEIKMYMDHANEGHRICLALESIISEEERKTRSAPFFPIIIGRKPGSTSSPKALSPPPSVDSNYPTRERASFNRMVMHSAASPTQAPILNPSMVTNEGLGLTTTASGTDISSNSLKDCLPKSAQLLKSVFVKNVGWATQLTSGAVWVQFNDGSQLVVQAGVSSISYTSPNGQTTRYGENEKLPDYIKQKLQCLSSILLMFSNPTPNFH
GSK3β (h), sequence (P49841 whole entry): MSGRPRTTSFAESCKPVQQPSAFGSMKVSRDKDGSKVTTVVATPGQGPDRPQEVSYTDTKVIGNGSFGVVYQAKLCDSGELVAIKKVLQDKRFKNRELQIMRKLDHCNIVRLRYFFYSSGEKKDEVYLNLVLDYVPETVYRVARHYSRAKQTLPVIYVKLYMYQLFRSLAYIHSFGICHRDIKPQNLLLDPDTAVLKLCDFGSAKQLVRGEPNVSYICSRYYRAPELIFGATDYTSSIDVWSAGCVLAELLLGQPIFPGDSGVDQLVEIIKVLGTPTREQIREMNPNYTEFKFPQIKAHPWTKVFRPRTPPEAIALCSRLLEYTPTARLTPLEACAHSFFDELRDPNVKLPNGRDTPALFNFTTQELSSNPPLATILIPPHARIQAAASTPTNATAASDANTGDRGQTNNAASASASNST

As for `O=C1NCc2cc(ccc2N2CCOCC2)Nc2nccc(n2)-c2cccc(c2)CCN2CCC[C@@H]12` [Compound 43], the IC50 on PLK4 (h) was 0.363 µM; at GSK3β (h) it was 0.186 µM; at CDK1/CyclinB (h), 0.427 µM; on CDK4/CyclinD1 (h) it was 0.427 µM; on PLK1 T210D (h), over 10 µM; with HCT-116, 1.78 µM. Besides, the values for the IC50 in the experiment on H1299, with A2780 and in the experiment with MDA-MB-231 were over 10 µM, 2.51 µM and 5.62 µM, respectively.

Turning to `O=C1NCc2cccc(c2)-c2ccnc(n2)Nc2cc(ccc2Cl)CN2C[C@H](O)C[C@@H]12` [Compound 52], the IC50 on PLK4 (h), at GSK3β (h), on CDK1/CyclinB (h), on CDK4/CyclinD1 (h), on PLK1 T210D (h) and in the experiment on HCT-116 was over 10 µM each time. Further, the IC50 with H1299, in the experiment on A2780 and in the experiment with MDA-MB-231 was over 10 µM in each case.

For the molecule `O=C1NCc2cccc(c2)-c2ccnc(n2)Nc2cccc(c2)CN2C[C@@H](O)C[C@@H]12` [Compound 45], the IC50 on PLK4 (h) was 0.417 µM; on GSK3β (h), 0.0724 µM; on CDK1/CyclinB (h) it was 0.0708 µM; on CDK4/CyclinD1 (h), 0.933 µM; at PLK1 T210D (h), over 10 µM; with HCT-116, 0.295 µM. In addition, the IC50 was 1.17 µM with H1299, 1.66 µM in the experiment on A2780 and 6.76 µM in the experiment on MDA-MB-231.

In the case of `O=C1NCc2cccc(c2)-c2ccnc(n2)Nc2cccc(c2)CN[C@H]1CO` [Compound 187], the IC50 at PLK4 (h) was 1.07 µM; at GSK3β (h) it was 0.0537 µM; on CDK1/CyclinB (h), 0.646 µM; at CDK4/CyclinD1 (h), 1.2 µM; on PLK1 T210D (h) it was over 10 µM; with HCT-116, 1.35 µM. In addition, the results for the IC50 with H1299, in the experiment with A2780 and in the experiment with MDA-MB-231 were 6.17 µM, 5.5 µM and 7.94 µM, respectively.

Take `COc1cc2cc(c1)Nc1nccc(n1)-c1ccc(OC)c(c1)CN(C)CCNC(=O)[C@H](CO)NC2` [Compound 107]: the IC50 is 0.589 µM on PLK4 (h); 6.31 µM at GSK3β (h); over 10 µM on CDK1/CyclinB (h); over 10 µM at CDK4/CyclinD1 (h); over 10 µM at PLK1 T210D (h); 4.37 µM with HCT-116. Also, the IC50 in the experiment on H1299, in the experiment on A2780 and in the experiment with MDA-MB-231 was over 10 µM each time.

As to `COc1cc2cc(c1)Nc1nccc(n1)-c1ccc(OC)c(c1)CN(C)CCNC(=O)CN1CCN(CC1)C2` [Compound 127], the IC50 was 0.813 µM at PLK4 (h); 5.01 µM on GSK3β (h); over 10 µM on CDK1/CyclinB (h); over 10 µM on CDK4/CyclinD1 (h); over 10 µM at PLK1 T210D (h); 6.46 µM in the experiment with HCT-116. In addition, the IC50 in the experiment with H1299, in the experiment on A2780 and in the experiment on MDA-MB-231 was over 10 µM throughout.

Regarding `COc1ccc2cc1CN(C)CCNC(=O)[C@@H]1CCCN1Cc1cc(cc(N3CCOCC3)c1)Nc1nccc-2n1` [Compound 152], the IC50 on PLK4 (h) was 0.692 µM; on GSK3β (h), 5.13 µM; on CDK1/CyclinB (h), over 10 µM; at CDK4/CyclinD1 (h), over 10 µM; at PLK1 T210D (h), over 10 µM; with HCT-116, over 10 µM. Also, the IC50 with H1299, in the experiment with A2780 and in the experiment on MDA-MB-231 was over 10 µM throughout.

With `COc1cc2cc(c1)Nc1nccc(n1)-c1ccc(OC)c(c1)CN(C)CCNC(=O)C1CCN(CC1)C2` [Compound 67], the IC50 on PLK4 (h) was 1.51 µM; on GSK3β (h), 3.09 µM; at CDK1/CyclinB (h), over 10 µM; at CDK4/CyclinD1 (h), over 10 µM; on PLK1 T210D (h), over 10 µM; in the experiment on HCT-116, over 10 µM. Moreover, the IC50 with H1299, in the experiment on A2780 and with MDA-MB-231 was over 10 µM each time.

For the molecule `CN1CCNC(=O)CN2CCN(CC2)Cc2cccc(c2)Nc2nccc(n2)-c2ccc(cc2)C1` [Compound 134], the IC50 at PLK4 (h) is 1.62 µM; at GSK3β (h) it was 1.32 µM; at CDK1/CyclinB (h), 4.79 µM; at CDK4/CyclinD1 (h) it was over 10 µM; on PLK1 T210D (h) it was over 10 µM; with HCT-116, 5.25 µM. Moreover, the IC50 in the experiment on H1299, in the experiment on A2780 and in the experiment with MDA-MB-231 was over 10 µM throughout.

Take `O=C1NCc2cccc(c2)-c2ccnc(n2)Nc2ccccc2CN2CCC[C@@H]12` [Compound 57]: the IC50 on PLK4 (h), at GSK3β (h), at CDK1/CyclinB (h), at CDK4/CyclinD1 (h), on PLK1 T210D (h) and with HCT-116 was over 10 µM throughout. Also, the IC50 in the experiment with H1299, in the experiment on A2780 and with MDA-MB-231 was over 10 µM each time.

As for `CC(C)(C)O[C@@H]1C[C@H]2C(=O)NCc3cccc(c3)-c3ccnc(n3)Nc3ccccc3CN2C1` [Compound 58], the IC50 at PLK4 (h), on GSK3β (h), on CDK1/CyclinB (h), at CDK4/CyclinD1 (h), at PLK1 T210D (h) and in the experiment on HCT-116 was over 10 µM throughout. For the same molecule, the IC50 in the experiment on H1299, in the experiment with A2780 and with MDA-MB-231 was over 10 µM each time.

Take `COc1cc2cc(c1)Nc1nccc(n1)-c1ccc(OC)c(c1)CN(C)CCCNC(=O)C1CCN(CC1)C2` [Compound 73]: the IC50 at PLK4 (h) was 2.57 µM; on GSK3β (h), over 10 µM; on CDK1/CyclinB (h), over 10 µM; on CDK4/CyclinD1 (h) it was over 10 µM; on PLK1 T210D (h), over 10 µM; with HCT-116, 3.09 µM. Besides, the IC50 in the experiment on H1299, in the experiment with A2780 and in the experiment on MDA-MB-231 was over 10 µM each time.

For the molecule `COc1cc2cc(c1)Nc1nccc(n1)-c1ccc(cc1)CN(C)CCCNC(=O)[C@@H]1CCCN1C2` [Compound 156], the IC50 was 0.912 µM at PLK4 (h); over 10 µM on GSK3β (h); over 10 µM on CDK1/CyclinB (h); over 10 µM on CDK4/CyclinD1 (h); over 10 µM at PLK1 T210D (h); over 10 µM with HCT-116. Further, the IC50 in the experiment on H1299, in the experiment with A2780 and with MDA-MB-231 was over 10 µM throughout.

On to `O=C1NCc2cccc(c2)-c2ccnc(n2)Nc2ccc(C(=O)N3CCOCC3)c(c2)CN2CCC[C@@H]12` [Compound 26], for which the IC50 at PLK4 (h) is 0.0977 µM; at GSK3β (h) it was 0.0676 µM; on CDK1/CyclinB (h) it was over 10 µM; on CDK4/CyclinD1 (h) it was over 10 µM; on PLK1 T210D (h), over 10 µM; in the experiment on HCT-116, 2.19 µM. For the same molecule, the IC50 in the experiment on H1299 was 2.45 µM; with A2780, 4.17 µM; in the experiment with MDA-MB-231, 8.13 µM.

In the case of `O=C1NCc2cccc(c2)-c2ccnc(n2)Nc2cc(cc(C(=O)N3CCOCC3)c2)CN2CCC[C@@H]12` [Compound 32], the IC50 on PLK4 (h) was 0.178 µM; at GSK3β (h) it was 0.186 µM; on CDK1/CyclinB (h), 0.55 µM; on CDK4/CyclinD1 (h), 3.31 µM; on PLK1 T210D (h) it was over 10 µM; in the experiment on HCT-116, 5.13 µM. The IC50 with H1299, in the experiment on A2780 and with MDA-MB-231 was over 10 µM throughout.

Consider `COc1ccc2cc1CN[C@@H](CO)C(=O)N(C)CCCN(C)c1ccc(cn1)-c1ccnc(n1)N2` [Compound 11], for which the IC50 was 0.933 µM on PLK4 (h); 2.09 µM at GSK3β (h); over 10 µM at CDK1/CyclinB (h); over 10 µM on CDK4/CyclinD1 (h); over 10 µM on PLK1 T210D (h); over 10 µM with HCT-116. Besides, the IC50 in the experiment on H1299, in the experiment with A2780 and in the experiment on MDA-MB-231 was over 10 µM each time.

Consider `COc1ccc2cc1CN(C)CCCNC(=O)[C@H](CO)NCc1cccc(c1)Nc1nccc-2n1` [Compound 118], for which the IC50 at PLK4 (h) was 3.24 µM; on GSK3β (h), over 10 µM; on CDK1/CyclinB (h), over 10 µM; at CDK4/CyclinD1 (h) it was over 10 µM; at PLK1 T210D (h), over 10 µM; in the experiment with HCT-116, over 10 µM. The IC50 in the experiment with H1299, in the experiment with A2780 and with MDA-MB-231 was over 10 µM in each case.
